For this assay, the target named is mGluR4 (UniProt Q14833). In words: mGluR4 potentiation assay (fluorescence, Ca2+ or thallium/GIRK readout; EC20 agonist). In kind it is cell-based, human / rat. As to conditions: half maximal effective concentration for mGluR4 potentiation; species of receptor not given. The procedure:
The disclosed compounds and compositions can be evaluated for their ability to act as a potentiator of metabotropic glutamate receptor activity, in particular mGluR4 activity, by any suitable known methodology known in the art. For example, Chinese Hamster Ovary (CHO) cells transfected with human mGluR4 or HEK cells co-transfected with rat mGluR4 and the G-protein regulated Inwardly Rectifying Potassium channel (GIRK) were plated in clear bottom assay plates for assay in a Hamamatsu FDSS Fluorometric Plate Reader. The cells were loaded with either a Ca2+-sensitive fluorescent dye or the thallium responsive dye and the plates were washed and placed into a suitable kinetic plate reader. For human mGluR4 assays, a fluorescence baseline was established for 3-5 seconds, the disclosed compounds were then added to the cells, and the response in cells was measured. Approximately two and a half minutes later, a concentration of mGluR4 orthosteric agonist (e.g. glutamate or L-AP4) eliciting approximately 20% (EC20) of the maximal agonist response was added to the cells, and the response was measured. Two minutes later, a concentration of mGluR4 agonist (e.g. glutamate or L-AP4) eliciting 80% (EC80) of the maximal agonist response was added to the cells, and the response was measured. For rat mGluR4/GIRK experiments, a baseline was established for approximately five seconds, disclosed compounds were added, and either an EC20 or EC80 concentration of agonist was added approximately two and one half minutes later. Potentiation of the agonist response of mGluR4 by the disclosed compounds was observed as an increase in response to the EC20 concentration of agonist in the presence of compound compared to the response to agonist in the absence of compound. Similarly, antagonism of the agonist response of mGluR4 by the disclosed compounds was observed as a decrease in response to the EC80 concentration of agonist in the presence of compound compared to the response to agonist in the absence of compound.
The above described assay operated in two modes. In the first mode, a range of concentrations of the disclosed compounds are added to cells, followed by a single fixed concentration of agonist. If the compound acts as a potentiatior, an EC50 value for potentiation and a maximum extent of potentiation by the compound at this concentration of agonist is determined by non-linear curve fitting. If the compound acts as a noncompetitive antagonist, an IC50 value is determined by non-linear curve fitting. In the second mode, several fixed concentrations of the disclosed compounds are added to various wells on a plate, followed by a range in concentrations of agonist for each concentration of disclosed compound. The EC50 values for the agonist at each concentration of compound are determined by non-linear curve fitting. A decrease in the EC50 value of the agonist with increasing concentrations of the sample compound (a leftward shift of the agonist concentration-response curve) is an indication of the degree of mGluR4 potentiation at a given concentration of the sample compound. A decrease in the maximal response of the agonist with increasing concentrations of the sample compounds, with or without a rightward shift in agonist potency, is an indication of the degree of noncompetitive antagonism at mGluR4. The second mode also indicates whether the sample compounds also affect the maximum response to mGluR4 to agonists.

In the case of `O=C(Nc1ccc(N2C(=O)NC3(CCCCC3)C2=O)c(C(F)(F)F)c1)c1ccccn1` [Example 1.3.50, N-(4-(2,4-dioxo-1,3-diazaspiro[4.5]decan-3-yl)-3-(trifluoromethyl)phenyl)picolinamide], the EC50 – broadly, the midpoint of the concentration-response curve – was found to be 0.454 µM. On to `CC12CCCCN1C(=O)N(c1ccc(NC(=O)c3ncccc3F)cc1Cl)C2=O` (centres unmarked) [Example 1.3.91, N-(3-chloro-4-(8a-methyl-1,3-dioxohexahydroimidazo[1,5-a]pyridin-2(3H)-yl)phenyl)-3-fluoropicolinamide], for which the EC50 came to 3.79 µM.

Turning to `O=C(Nc1ccc(N2C(=O)C3COCCN3C2=S)c(Cl)c1)c1ccc(Cl)o1` (centres unmarked) [Example 1.3.37, 5-Chloro-N-(3-chloro-4-(1-oxo-3-thioxodihydro-1H-imidazo[5,1-c][1,4]oxazin-2(3H, 8H,8aH)-yl)phenyl)-furan-2-carboxamide], the EC50 worked out at 5.05 µM. For `O=C(Nc1ccc(N2C(=O)NC3(CCCCCC3)C2=O)c(Cl)c1)c1ccccn1` [Example 1.3.15, N-(3-chloro-4-(2,4-dioxo-1,3-diazaspiro[4.6]undecan-3-yl)phenyl)picolinamide] the value was 0.222 µM. Under `CC(C)C[C@]1(C)NC(=O)N(c2ccc(NC(=O)c3ccccn3)cc2Cl)C1=O` [Example 1.3.16, (S)-N-(3-chloro-4-(4-isobutyl-4-methyl-2,5-dioxoimidazolidin-1-yl)phenyl)picolinamide] stands 3.59 µM; under `O=C(Nc1ccc(N2C(=O)C3CCCCN3C2=S)c(Cl)c1)c1cscn1` (centres unmarked) [Example 1.3.80, N-(3-chloro-4-(1-oxo-3-thioxohexahydroimidazo[1,5-a]pyridin-2(3H)-yl)phenyl)thiazole-4-carboxamide], 1.97 µM.

As for `O=C(Nc1ccc(N2C(=O)C3COCCN3C2=S)c(Cl)c1)c1nccs1` (centres unmarked) [Example 1.3.34, N-(3-Chloro-4-(1-oxo-3-thioxodihydro-1H-imidazo[5,1-c][1,4]oxazin-2(3H,8H,8aH)-yl)phenyl)thiazole-2-carboxamide], the EC50 worked out at 1.17 µM. For `COc1cc(NC(=O)c2ccccn2)ccc1N1C(=O)N[C@@](C)(Cc2ccc(F)cc2)C1=O` [Example 1.3.63, (S)-N-(4-(4-(4-fluorobenzyl)-4-methyl-2,5-dioxoimidazolidin-1-yl)-3-methoxyphenyl)picolinamide] the value was 1.04 µM; for `O=C(Nc1ccc(N2C(=O)C3COCCN3C2=O)c(Cl)c1)c1cccc(F)n1` (centres unmarked) [Example 1.3.29, N-(3-Chloro-4-(1,3-dioxodihydro-1H-imidazo[5,1-c][1,4]oxazin-2(3H,8H,8aH)-yl)phenyl)-6-fluoropicolinamide], 6.73 µM. Under `O=C(Nc1ccc(N2C(=O)C3COCCN3C2=O)c(Cl)c1)c1cccs1` (centres unmarked) [Example 1.3.24, N-(3-Chloro-4-(1,3-dioxodihydro-1H-imidazo[5,1-c][1,4]oxazin-2(3H,8H,8aH)-yl)phenyl)thiophene-2-carboxamide] stands 9.5 µM; under `CC12CCCCN1C(=S)N(c1ccc(NC(=O)c3ncccc3F)cc1Cl)C2=O` (centres unmarked) [Example 1.3.99, N-(3-chloro-4-(8a-methyl-1-oxo-3-thioxohexahydroimidazo[1,5-a]pyridin-2(3H)-yl)phenyl)-3-fluoropicolinamide], 0.65 µM. For the compound `O=C(Nc1ccc(N2C(=O)NC3(CCCCC3)C2=O)c(C(F)(F)F)c1)c1ccco1` [Example 1.3.55, N-(4-(2,4-dioxo-1,3-diazaspiro[4.5]decan-3-yl)-3-(trifluoromethyl)phenyl)furan-2-carboxamide], the EC50 is 4.12 µM. For `O=C(Nc1ccc(N2C(=O)C3CS(=O)(=O)CCN3C2=O)c(Cl)c1)c1ccccn1` (centres unmarked) [Example 1.3.41, N-(3-chloro-4-(1,3-dioxodihydro-1H-imidazo[5,1-c][1,4]dioxothiazin-2(3H,8H,8aH)-yl)phenyl)picolinamide] the value was 3.03 µM.

On to `O=C(Nc1ccc(N2C(=O)C3COCCN3C2=O)c(Cl)c1)c1ccccn1` (centres unmarked) [Example 1.3.21, N-(3-Chloro-4-(1,3-dioxodihydro-1H-imidazo[5,1-c][1,4]oxazin-2(3H,8H,8aH)-yl)phenyl)picolinamide], for which the EC50 is 2.18 µM. Under `O=C(Nc1ccc(N2C(=O)C3CCCCN3C2=S)c(Cl)c1)c1cccc(Cl)n1` (centres unmarked) [Example 1.3.75, 6-chloro-N-(3-chloro-4-(1-oxo-3-thioxohexahydroimidazo[1,5-a]pyridin-2(3H)-yl)phenyl)picolinamide] stands 3.26 µM.

Turning to `CS(=O)(=O)N1CCN2C(=O)N(c3ccc(NC(=O)c4ccccn4)cc3Cl)C(=O)C2C1` (centres unmarked) [Example 1.3.47, N-(3-chloro-4-(7-(methylsulfonyl)-1,3-dioxotetrahydroimidazo[1,5-a]pyrazin-2(1H,3H,5H)-yl)phenyl)picolinamide], the EC50 amounted to 4.71 µM. For `O=C(Nc1ccc(N2C(=O)C3CCCCN3C2=S)c(Cl)c1)c1cccc(F)n1` (centres unmarked) [Example 1.3.83, N-(3-chloro-4-(1-oxo-3-thioxohexahydroimidazo[1,5-a]pyridin-2(3H)-yl)phenyl)-6-fluoropicolinamide] the value was 0.354 µM; for `O=C(Nc1ccc(N2C(=O)N[C@@H](c3ccccc3)C2=O)c(Cl)c1)c1ccccn1` [Example 1.3.56, (S)-N-(3-chloro-4-(2,5-dioxo-4-phenylimidazolidin-1-yl)phenyl)picolinamide], 0.38 µM.

For `O=C(Nc1ccc(N2C(=O)C3CCCCN3C2=S)c(Cl)c1)c1cccs1` (centres unmarked) [Example 1.3.77, N-(3-chloro-4-(1-oxo-3-thioxohexahydroimidazo[1,5-a]pyridin-2(3H)-yl)phenyl)thiophene-2-carboxamide], the EC50 was found to be 2.78 µM. As for `O=C(Nc1ccc(N2C(=O)NC3(CCC3)C2=O)c(Cl)c1)c1ccccn1` [Example 1.3.14, N-(3-chloro-4-(6,8-dioxo-5,7-diazaspiro[3.4]octan-7-yl)phenyl)picolinamide], the EC50 worked out at 1.28 µM.

For the compound `CC(C)[C@@]1(C)NC(=O)N(c2ccc(NC(=O)c3ccccn3)cc2Cl)C1=O` [Example 1.3.60, (R)-N-(3-chloro-4-(4-isopropyl-4-methyl-2,5-dioxoimidazolidin-1-yl)phenyl)picolinamide], the EC50 came out at 3.59 µM. With `CN1C(=O)N(c2ccc(NC(=O)c3ccccn3)cc2Cl)C(=O)C12CC1CCC2C1` (centres unmarked) [Example 1.3.54, N-(3-chloro-4-(3′-methyl-2′,5′-dioxospiro[bicyclo[2.2.1]heptane-2,4′-imidazolidin]-1′-yl)phenyl)picolinamide], the EC50 was 0.325 µM. For the compound `O=C(Nc1ccc(N2C(=O)C3CCCCN3C2=S)c(Cl)c1)c1cnccn1` (centres unmarked) [Example 1.3.76, N-(3-chloro-4-(1-oxo-3-thioxohexahydroimidazo[1,5-a]pyridin-2(3H)-yl)phenyl)pyrazine-2-carboxamide], the EC50 came to 5.04 µM.

For `O=C(Nc1ccc(N2C(=O)C3CCCCN3C2=O)c(Cl)c1)c1ccc(Cl)o1` (centres unmarked) [Example 1.3.8, 5-Chloro-N-(3-chloro-4-(1,3-dioxotetrahydroimidazo[1,5-a]pyridin-2(1H,3H,5H)-yl)phenyl)furan-2-carboxamide], the EC50 stood at 6.2 µM. For the compound `O=C(Nc1ccc(N2C(=O)C3CSCCN3C2=O)c(Cl)c1)c1cccc(F)n1` (centres unmarked) [Example 1.3.42, N-(3-chloro-4-(1,3-dioxodihydro-1H-imidazo[5,1-c][1,4]thiazin-2(3H,8H,8aH)-yl)phenyl)-6-fluoropicolinamide], the EC50 worked out at 1.17 µM. On to `O=C(Nc1ccc(N2C(=O)C3CNCCN3C2=O)c(Cl)c1)c1ccccn1` (centres unmarked) [Example 1.3.45], for which the EC50 was found to be 4.2 µM.

Turning to `CN1C(=O)N(c2ccc(NC(=O)c3ccccn3)cc2Cl)C(=O)[C@]1(C)Cc1ccccc1` [Example 1.3.64, (S)-N-(4-(4-benzyl-3,4-dimethyl-2,5-dioxoimidazolidin-1-yl)-3-chlorophenyl)picolinamide], the EC50 was determined as 0.197 µM. Under `O=C(Nc1ccc(N2C(=O)C3CCCCN3C2=S)c(Cl)c1)c1ccccn1` (centres unmarked) [Example 1.3.10] stands 0.367 µM. Under `CC12CCCCN1C(=O)N(c1ccc(NC(=O)c3ccccn3)cc1Cl)C2=O` (centres unmarked) [Example 1.3.48, N-(3-chloro-4-(8a-methyl-1,3-dioxohexahydroimidazo[1,5-a]pyridin-2(3H)-yl)phenyl)picolinamide] stands 0.434 µM.

Source of the values: patent US8779157B2, “MGLUR4 allosteric potentiators, compositions, and methods of treating neurological dysfunction” (Vanderbilt University, priority 2009, dated 2014).
